# “And” between values parts separate entries of the source, which are not always exact repeats. Equal entries are not always repeated.
# What was measured:
# RTEM β-lactamase [1] = biological target: T1, RTEM β-lactamase (Escherichia coli, UniProt P62593); experiment: Pixel intensities of CCF2 loaded COS-7 cells transiently transfected with RTEM β-lactamase gene; type: cell-based; parameters: expressed in transfected cells; host or cells: COS-7, transiently transfected; conditions: for pixel intensity, coumarin emission filter: 450 DF 65 filter
# Description: (§1) Cells from cell lines of various mammalian origin were transiently transfected with a plasmid containing the RTEM β-lactamase gene under the control of a mammalian promoter. […] D. 1.10 to 48 hours after transfection cells were exposed to 5 micromolar CCF2/ac2AM2 for 1 to 6 hours. […] To quantitate the fluorescence measurements the cells were first viewed through coumarin (450 DF 65) and then fluorescein (515 EFLP) emission filters and pictures were recorded with a charge couple device camera. The average pixel intensities of CCF2 loaded transfected cells (blue) and controls (green) at coumarin and fluorescein wavelength in COS-7 (Table 2) and CHO (Table 3) cells are summarized; values for 4 representative cells for each population are given.
# β-lactamase = β-lactamase cleavage of CCF2 in phosphate buffer, emission spectrum; type: biochemical; conditions: 50 mmolar phosphate buffer pH 7.0, excitation 405 nm
# Description: The emission spectrum of compound CCF2 in 50 mmolar phosphate buffer pH 7.0 before and after β-lactamase cleavage of the β-lactam ring. In the intact substrate, efficient energy transfer occurs from the 7-hydroxycoumarin moiety to the fluorescein moiety. Excitation of the substrate at 405 nm results in fluorescence emission at 515 nm (green) from the acceptor dye fluorescein. The energy transfer is disrupted when β-lactamase cleaves the β-lactam ring, thereby severing the link between the two dyes. Excitation of the products at 405 nm now results entirely in donor fluorescence emission at 448 nm (blue). The fluorescence emission from the donor moiety increases 25 fold upon β-lactam cleavage. The fluorescence at 515 nm is reduced by 3.5-fold, all of the remaining fluorescence originating from the 7-hydroxycoumarin as its emission spectrum extends into the green. Twenty-five-fold quenching of the donor in the substrate is equivalent to an efficiency of fluorescence energy transfer of 96%. This large fluorescence change upon β-lactam cleavage can readily be used to detect β-lactamase in the cytoplasm of living mammalian cells.
# RTEM β-lactamase [2] = biological target: T1, RTEM β-lactamase; experiment: Pixel intensities of CCF2 loaded CHO cells transiently transfected with RTEM β-lactamase gene; type: cell-based; parameters: expressed in transfected cells; host or cells: CHO, transiently transfected; conditions: for pixel intensity, coumarin emission filter: 450 DF 65 filter
# Description: as §1
# NFAT promoter = NFAT promoter β-lactamase reporter gene assay in Jurkat T lymphocytes; type: cell-based
# Description: These examples employ Jurkat T lymphocytes that were transfected with a genetic construct that expresses a reporter gene. The genetic construct includes a NFAT promoter, which is responsive to increased calcium levels and protein kinase C activation that result from activation of Gα protein. The NFAT promoter was operably linked to a β-lactamase reporter gene. To detect expression of the reporter gene, and thereby detect activation of Gα, the cells were contacted with the β-lactamase substrate CCF2ac2/AM2 (described herein), and fluorescence emission was detected according to previously described methods (Tsien et al., 1993, Trends in Cell Biology 3:242-245).
# Two different compounds, ionomycin and phorbol myristate acetate (PMA), were used to optimize detection of expression of the reporter gene in these examples. In the first example, the dose response to ionomycin was measured. In this example, a set of samples of cells were contacted with PMA (at 3 nM) and the calcium ionophore ionomycin (at various concentrations, ranging from 0 to 3.0 μM). […]
# In practicing these methods, it is preferable to add the ionophore to a level that is just below the threshold level for activation of the calcium-responsive promoter (e.g., the NFAT promoter). […] As is illustrated in FIG. 4A, fluorescence emission from a sample of the aforementioned cells can be measured by FRET. In this example, fluorescence emission was measured approximately 90 minutes after stimulation. Because the fluorogenic β-lactamase substrate undergoes a shift in fluorescence emission, fluorescence emission is measured as an emission ratio (450/530) when exciting at 400 nm. […]
# In a second example, the dose response of PMA required to stimulate NFAT-driven expression was measured. […] As above, fluorescence emission was measured 90 minutes after stimulation. […]
# Gα15 or Gα16 expression = experiment: Doxycyclin-inducible expression of Gα15 or Gα16 in COS-7 cells, Western blot; type: cell-based; conditions: COS-7 clones, tet operator/CMV promoter; doxycyclin 3 g/ml
# Description: The data summarized herein indicate that, although cells may not tolerate constitutive expression of promiscuous Gα proteins at high levels, they can tolerate expression of promiscuous Gα proteins from an inducible promoter. In this case, the genes for Gα15 and Gα16 were placed under the control of a cytomegalovirus (CMV) promoter that was operably linked to a heptamerized tet operator (Gossen and Bujard, 1992, Proc. Natl. Acad. Sci. 89:5547-5551). The plasmid encoding Gα and; the plasmid encoding Gα16 are identical, except sequences encoding Gα16 in lieu of Gα15. These plasmids were used to transfect COS-7 cells. These cells were co-transfected with a tetracyclin-dependent transactivator, rtTA, that is operably linked to a CMV promoter of a plasmid that carries a neomycin resistance gene (Gossen et al., 1995, Science 268:1766-1769).
# Expression of the Gα genes was induced by contacting the cells with doxycyclin, a tetracyclin analog. In these experiments, the doxycyclin concentration was […], although doxycyclin concentrations ranging from […] can be used in order to regulate the level of gene expression. […] FIG. 3 illustrates that, in the presence of doxycyclin, expression of Gα15 or Gα16 is detectable as a band of approximately 43 kDa. […]
# T1 sequence (P62593 24-286 limits assumed): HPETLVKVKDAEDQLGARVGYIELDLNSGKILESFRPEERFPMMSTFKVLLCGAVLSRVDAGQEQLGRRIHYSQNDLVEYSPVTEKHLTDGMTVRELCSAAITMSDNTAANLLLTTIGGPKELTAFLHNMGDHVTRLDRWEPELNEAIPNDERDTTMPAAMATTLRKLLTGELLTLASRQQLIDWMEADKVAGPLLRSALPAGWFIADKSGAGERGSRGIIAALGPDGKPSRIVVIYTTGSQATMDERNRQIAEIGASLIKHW
compound,measurement,setting,value
O=C(CNC(=O)c1cc2cc(Cl)c(O)cc2oc1=O)N[C@@H]1C(=O)N2C(C(=O)O)=C(CSc3ccc4c(c3)C(=O)OC43c4ccc(O)cc4Oc4cc(O)ccc43)CS[C@H]12 [CCF2],"pixel intensity, coumarin emission filter","RTEM β-lactamase [1]; COS-7, blue cell (transfected)",22 and 27 and 34 and 31
same,"pixel intensity, Fluorescein emission filter","RTEM β-lactamase [1]; COS-7, blue cell (transfected), 515 EFLP filter",33 and 20 and 23 and 31
same,"pixel intensity, coumarin emission filter","RTEM β-lactamase [1]; COS-7, green cell (control)",4 and 5 and 3
same,reduction of fluorescence at 515 nm upon β-lactam cleavage,β-lactamase,3.5 fold
same,increase of fluorescence emission from the donor moiety upon β-lactam cleavage,β-lactamase; emission 448 nm,25 fold
same,"pixel intensity, coumarin emission filter",RTEM β-lactamase [2]; blue cell (transfected),98 and 70 and 76 and 56
same,"pixel intensity, Fluorescein emission filter","RTEM β-lactamase [2]; blue cell (transfected), 515 EFLP filter",112 and 113 and 92 and 67
same,"pixel intensity, coumarin emission filter",RTEM β-lactamase [2]; green cell (control),9 and 7
"CCCCCCCCCCCCCC(=O)O[C@@H]1[C@@H](C)[C@@]2(O)[C@@H](C=C(CO)C[C@]3(O)C(=O)C(C)=C[C@@H]23)[C@@H]2C(C)(C)[C@]12OC(C)=O [PMA, phorbol myristate acetate]",effect on fluorescence emission from the cell sample,"NFAT promoter; 0 to 30 nM with 1 μM ionomycin, 90 minutes after stimulation",increased fluorescence emission
same,concentration preferable for enhancing detection of expression of a reporter gene,"NFAT promoter; with 1 μM ionomycin, 90 minutes after stimulation",approximately 3 nM
C[C@H]1c2cccc(O)c2C(O)=C2C(=O)[C@]3(O)C(O)=C(C(N)=O)C(=O)[C@@H](N(C)C)[C@@H]3[C@@H](O)[C@@H]21 [doxycyclin],Gα proteins produced upon induction of gene expression,Gα15 or Gα16 expression,"Up to 10,000 Gα proteins/cell"
C[C@H](CCC(=O)O)C[C@H](C)C[C@H](C)C(=O)/C=C(\O)[C@H](C)C[C@H](C)C/C=C/[C@@H](C)[C@@H](O)[C@@H](C)[C@@H](O)C[C@@H]1CC[C@@](C)([C@H]2CC[C@@](C)([C@@H](C)O)O2)O1 [ionomycin],concentration raising intracellular calcium to just below the threshold level for activation of the calcium-responsive promoter,"NFAT promoter; with PMA at 3 nM, emission ratio 450/530, about 90 minutes after stimulation",approximately 0.3 μM
